pIC50: −log10 of the molar value. Blank lines part the entries; values can stand above or below the molecule they belong to.
System: K86415-001-R-J1-PDC complex spheroids, viability
Assay: Anticancer human tumor K86415-001-R-J1-PDC patient-derived lung adenocarcinoma cell line growth inhibition [RAS]
Conditions: for viability, T/C: stronger effect = lower value
How it was run: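 Agents were tested in combination matrices in half-log decrements from a top concentration at or near clinical Cmax (10 microM if undetermined). Targets were multi-cell spheroids of tumour lines plus HUVEC and MSC stromal cells.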

[1] = curve of first compound, second compound 0.0316 µM
[2] = curve of first compound, second compound 0.1 µM
[3] = curve of first compound, second compound 0.316 µM
[4] = curve of first compound, second compound 1 µM
[5] = second compound 0.0316 µM, first compound 0.0316 µM
[6] = second compound 0.0316 µM, first compound 0.1 µM
[7] = second compound 0.0316 µM, first compound 0.316 µM
[8] = second compound 0.0316 µM, first compound 1 µM
[9] = second compound 0.0316 µM, first compound 3.16 µM
[10] = second compound 0.0316 µM, first compound 10 µM
[11] = second compound 0.1 µM, first compound 0.0316 µM
[12] = second compound 0.1 µM, first compound 0.1 µM
[13] = second compound 0.1 µM, first compound 0.316 µM
[14] = second compound 0.1 µM, first compound 1 µM
[15] = second compound 0.1 µM, first compound 3.16 µM
[16] = second compound 0.1 µM, first compound 10 µM
[17] = second compound 0.316 µM, first compound 0.0316 µM
[18] = second compound 0.316 µM, first compound 0.1 µM
[19] = second compound 0.316 µM, first compound 0.316 µM
[20] = second compound 0.316 µM, first compound 1 µM
[21] = second compound 0.316 µM, first compound 3.16 µM
[22] = second compound 0.316 µM, first compound 10 µM
[23] = second compound 1 µM, first compound 0.0316 µM
[24] = second compound 1 µM, first compound 0.1 µM
[25] = second compound 1 µM, first compound 0.316 µM
[26] = second compound 1 µM, first compound 1 µM
[27] = second compound 1 µM, first compound 3.16 µM
[28] = second compound 1 µM, first compound 10 µM
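Further: spheroids exposed to agents for seven days before readout.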

pIC50 (curve of first compound, second compound 0.00316 µM): > 7.50
pIC50 (curve of first compound, second compound 0.01 µM): > 7.50
pIC50 [1]: > 7.50
pIC50 [2]: > 7.50
pIC50 [3]: > 7.50
pIC50 [4]: > 7.50
SMILES: C[C@@H](NC(=O)c1ncnc(N)c1Cl)c1ncc(C(=O)Nc2cc(C(F)(F)F)c(Cl)cn2)s1 + C=CC(=O)N1CCN(c2nc(OCC3CCCN3C)nc3c(F)c(-c4nc(N)cc(C)c4C(F)(F)F)c(Cl)cc23)C(C)C1
viability, T/C (second compound 0.00316 µM, first compound 0.0316 µM): 24.3%
viability, T/C (second compound 0.00316 µM, first compound 0.1 µM): 23.5%
viability, T/C (second compound 0.00316 µM, first compound 0.316 µM): 23.3%
viability, T/C (second compound 0.00316 µM, first compound 1 µM): 25.3%
viability, T/C (second compound 0.00316 µM, first compound 3.16 µM): 19%
viability, T/C (second compound 0.00316 µM, first compound 10 µM): 17.7%
viability, T/C (second compound 0.01 µM, first compound 0.0316 µM): 14.8%
viability, T/C (second compound 0.01 µM, first compound 0.1 µM): 14.6%
viability, T/C (second compound 0.01 µM, first compound 0.316 µM): 14.2%
viability, T/C (second compound 0.01 µM, first compound 1 µM): 14.6%
viability, T/C (second compound 0.01 µM, first compound 3.16 µM): 20%
viability, T/C (second compound 0.01 µM, first compound 10 µM): 14%
viability, T/C [5]: 12%
viability, T/C [6]: 11.7%
viability, T/C [7]: 10.3%
viability, T/C [8]: 10.8%
viability, T/C [9]: 11.4%
viability, T/C [10]: 10.2%
viability, T/C [11]: 13.1%
viability, T/C [12]: 10.6%
viability, T/C [13]: 14.1%
viability, T/C [14]: 10.8%
viability, T/C [15]: 9.5%
viability, T/C [16]: 9.83%
viability, T/C [17]: 10.6%
viability, T/C [18]: 11.1%
viability, T/C [19]: 10.8%
viability, T/C [20]: 10.8%
viability, T/C [21]: 10.5%
viability, T/C [22]: 10.7%
viability, T/C [23]: 10.6%
viability, T/C [24]: 13%
viability, T/C [25]: 13.4%
viability, T/C [26]: 11.6%
viability, T/C [27]: 10.8%
viability, T/C [28]: 11.1%

pIC50 (curve of compound): < 6.00
SMILES: CCN1CCN(Cc2ccc(Nc3ncc(F)c(-c4cc(F)c5nc(C)n(C(C)C)c5c4)n3)nc2)CC1
viability, T/C (compound 0.00316 µM): 97.9% [middle of 4 runs]
viability, T/C (compound 0.01 µM): 90.2% [middle of 4 runs]
viability, T/C (compound 0.0316 µM): 78.5% [middle of 4 runs]
viability, T/C (compound 0.1 µM): 71.3% [middle of 4 runs]
viability, T/C (compound 0.316 µM): 70.2% [middle of 4 runs]
viability, T/C (compound 1 µM): 71.4% [middle of 4 runs]

pIC50 (curve of first compound, second compound 0.000949 µM): > 7.50
pIC50 (curve of first compound, second compound 0.003 µM): > 7.50
pIC50 (curve of first compound, second compound 0.00949 µM): > 7.50
pIC50 (curve of first compound, second compound 0.03 µM): > 7.50
pIC50 (curve of first compound, second compound 0.0949 µM): > 7.50
pIC50 (curve of first compound, second compound 0.3 µM): > 7.50
SMILES: CC(Nc1ccc2c(c1)OCCn1cc(N3C(=O)OCC3C(F)F)nc1-2)C(N)=O (stereo not drawn) + CCn1c(-c2cc(N3CCN(C)CC3)cnc2C(C)OC)c2c3cc(ccc31)-c1csc(n1)CC(NC(=O)C1CC1C)C(=O)N1CCCC(N1)C(=O)OCC(C)(C)C2
viability, T/C (second compound 0.000949 µM, first compound 0.0316 µM): 44.1%
viability, T/C (second compound 0.000949 µM, first compound 0.1 µM): 28.2%
viability, T/C (second compound 0.000949 µM, first compound 0.316 µM): 22.2%
viability, T/C (second compound 0.000949 µM, first compound 1 µM): 20.6%
viability, T/C (second compound 0.000949 µM, first compound 3.16 µM): 16.6%
viability, T/C (second compound 0.000949 µM, first compound 10 µM): 6.57%
viability, T/C (second compound 0.003 µM, first compound 0.0316 µM): 18.8%
viability, T/C (second compound 0.003 µM, first compound 0.1 µM): 12.9%
viability, T/C (second compound 0.003 µM, first compound 0.316 µM): 12.1%
viability, T/C (second compound 0.003 µM, first compound 1 µM): 8.44%
viability, T/C (second compound 0.003 µM, first compound 3.16 µM): 5.02%
viability, T/C (second compound 0.003 µM, first compound 10 µM): 1.84%
viability, T/C (second compound 0.00949 µM, first compound 0.0316 µM): 11.8%
viability, T/C (second compound 0.00949 µM, first compound 0.1 µM): 4.96%
viability, T/C (second compound 0.00949 µM, first compound 0.316 µM): 3.08%
viability, T/C (second compound 0.00949 µM, first compound 1 µM): 2.36%
viability, T/C (second compound 0.00949 µM, first compound 3.16 µM): 1.25%
viability, T/C (second compound 0.00949 µM, first compound 10 µM): 0.72%
viability, T/C (second compound 0.03 µM, first compound 0.0316 µM): 4.01%
viability, T/C (second compound 0.03 µM, first compound 0.1 µM): 1.42%
viability, T/C (second compound 0.03 µM, first compound 0.316 µM): 1.24%
viability, T/C (second compound 0.03 µM, first compound 1 µM): 1.2%
viability, T/C (second compound 0.03 µM, first compound 3.16 µM): 0.54%
viability, T/C (second compound 0.03 µM, first compound 10 µM): 0.63%
viability, T/C (second compound 0.0949 µM, first compound 0.0316 µM): 1.94%
viability, T/C (second compound 0.0949 µM, first compound 0.1 µM): 1.08%
viability, T/C (second compound 0.0949 µM, first compound 0.316 µM): 0.93%
viability, T/C (second compound 0.0949 µM, first compound 1 µM): 0.62%
viability, T/C (second compound 0.0949 µM, first compound 3.16 µM): 0.8%
viability, T/C (second compound 0.0949 µM, first compound 10 µM): 0.59%
viability, T/C (second compound 0.3 µM, first compound 0.0316 µM): 2.35%
viability, T/C (second compound 0.3 µM, first compound 0.1 µM): 0.93%
viability, T/C (second compound 0.3 µM, first compound 0.316 µM): 0.73%
viability, T/C (second compound 0.3 µM, first compound 1 µM): 0.47%
viability, T/C (second compound 0.3 µM, first compound 3.16 µM): 0.85%
viability, T/C (second compound 0.3 µM, first compound 10 µM): 0.49%

pIC50 [1]: 5.93
pIC50 [2]: 5.79
pIC50 [3]: 5.92
pIC50 [4]: 6.33
pIC50 (curve of first compound, second compound 3.16 µM): > 7.50
pIC50 (curve of first compound, second compound 10 µM): > 7.50
SMILES: CC(Nc1ccc2c(c1)OCCn1cc(N3C(=O)OCC3C(F)F)nc1-2)C(N)=O (stereo not drawn) + C#Cc1c(F)ccc2cc(O)cc(-c3ncc4c(N5CC6CCC(C5)N6)nc(OCC56CCCN5CC(F)C6)nc4c3F)c12
viability, T/C [5]: 84.4%
viability, T/C [6]: 93.5%
viability, T/C [7]: 63.5%
viability, T/C [8]: 50.1%
viability, T/C [9]: 47.6%
viability, T/C [10]: 29.1%
viability, T/C [11]: 90.3%
viability, T/C [12]: 86.2%
viability, T/C [13]: 69.5%
viability, T/C [14]: 56%
viability, T/C [15]: 42.5%
viability, T/C [16]: 28.2%
viability, T/C [17]: 84.9%
viability, T/C [18]: 86.7%
viability, T/C [19]: 65.3%
viability, T/C [20]: 53.2%
viability, T/C [21]: 38.5%
viability, T/C [22]: 28.4%
viability, T/C [23]: 71.6%
viability, T/C [24]: 62%
viability, T/C [25]: 50.9%
viability, T/C [26]: 46.1%
viability, T/C [27]: 34.3%
viability, T/C [28]: 23.2%
viability, T/C (second compound 3.16 µM, first compound 0.0316 µM): 33.2%
viability, T/C (second compound 3.16 µM, first compound 0.1 µM): 26.4%
viability, T/C (second compound 3.16 µM, first compound 0.316 µM): 26.5%
viability, T/C (second compound 3.16 µM, first compound 1 µM): 26.9%
viability, T/C (second compound 3.16 µM, first compound 3.16 µM): 22.4%
viability, T/C (second compound 3.16 µM, first compound 10 µM): 12.8%
viability, T/C (second compound 10 µM, first compound 0.0316 µM): 16.3%
viability, T/C (second compound 10 µM, first compound 0.1 µM): 15.2%
viability, T/C (second compound 10 µM, first compound 0.316 µM): 11.7%
viability, T/C (second compound 10 µM, first compound 1 µM): 6.87%
viability, T/C (second compound 10 µM, first compound 3.16 µM): 3.76%
viability, T/C (second compound 10 µM, first compound 10 µM): 1.56%
